Here are results for two compounds from US20070078124A1, “1-Aza-2-oxa-dibenzo(e,h)azulenes and their use for the treatment of central nervous system diseases and disorders” (PLIVA-ISTRAZIVACKI INSTITUT D.O.O., priority 2003, published 2007).

One assay deals with T1, 5-HT2C receptor (Homo sapiens, UniProt P28335).
T1 construct: expressed in transfected cells; host or cells: CHO-K1 (or COS-7)
T1 sequence (P28335 33-458): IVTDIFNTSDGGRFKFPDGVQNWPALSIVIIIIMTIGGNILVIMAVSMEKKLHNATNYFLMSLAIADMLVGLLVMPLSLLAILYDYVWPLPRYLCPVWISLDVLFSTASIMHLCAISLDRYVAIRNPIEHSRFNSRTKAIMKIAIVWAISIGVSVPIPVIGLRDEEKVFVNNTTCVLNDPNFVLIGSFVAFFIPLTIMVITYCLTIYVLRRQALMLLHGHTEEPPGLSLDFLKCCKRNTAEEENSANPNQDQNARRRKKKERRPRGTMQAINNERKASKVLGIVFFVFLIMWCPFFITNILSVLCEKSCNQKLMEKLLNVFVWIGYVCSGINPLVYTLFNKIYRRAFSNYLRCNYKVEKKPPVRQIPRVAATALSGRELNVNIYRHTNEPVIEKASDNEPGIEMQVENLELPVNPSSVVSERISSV
Nature of the assay: radioligand ([3H]mesulergine) competitive binding assay for 5-HT2C receptor. To be noted: choroid plexus or recombinant 5-HT2C receptor expressed in CHO-K1 cells; for IC50: read-out: binding affinity to 5-HT2C serotonin receptor expressed as IC50 value; for Ki: read-out: binding affinity to 5-HT2C serotonin receptor, Ki value. The protocol:
(§1) The effect of the compounds of the present invention on the neurochemical steady state was determined by in vitro investigations such as a radionuclide-marked radioligand binding assay for 5-HT2A (Bonhaus D. W. Br. J. Pharmacol. 1995, 115:622; Saucier C. J. Neurochem. 1997, 68:1998) and 5-HT2C receptors (Wolf W. A. J. Neurochem. 1997, 69:1449), in vitro binding assay for σ1 receptor (Thomson W. and Donn R. Arthritis Res. 2002, 4: 302-306) and by in vivo investigations in a tail suspension test (Vogel H. G. and Vogel W. H. Drug Discovery and Evaluation Pharmacological Assays, Springer 1997, 304), in amphethamine-induced hyperlocomotion in mice (Millan M. J. et al, 1998 J. Pharmacol. Exp. Ther. 287: 167-186), in a forced swim test in mice (Porsolt R. D. et al. Arch. Int. Pharmacodyn. 1977, 229:327-336), in meta-chlorophenyl piperazine (m-CPP) test on rats (Drug Dev. Res. 1989, 18:119-144), and in apomorphine, tryptamine, norepinephrine (ATN) test in rats (Arch. Int. Pharmacodyn. 1977, 227:238-253).
(§2) In Vitro Method for Determining Affinity for Binding to 5-HT2A and 5-HT2C Receptors
(§3) A small concentration of a radioligand having a great affinity for binding to a receptor was incubated with a tissue sample enriched with a certain receptor (1-5 mg of tissue) in a buffered medium (0.2-5 mL). Recombinant human HT2A and HT2C receptors were expressed in CHO-K1 or COS-7 cells and were also used for competitive binding. During incubation the radioligand bound to the receptor. When a binding balance was achieved, the receptors to which the radioligand was bound were separated from those to which said ligand was not bound, and the radioactivity of the receptor/radioligand complex was measured. The interaction of the tested compounds with receptors was tested in competitive binding experiments. Various concentrations of tested compounds were added to the incubation mixture containing a prepared tissue enriched with corresponding receptors and the radioligand. The radioligand binding was inhibited by the test compounds proportionally to the affinity of a certain compound for the receptor and to the concentration of the compound.
The radioligand used for the determination of binding to 5-HT2C receptor was [^3H]mesulergine and the tissue used was choroid plexus or recombinant 5-HT2C receptor expressed in CHO-K1 cells.

In another assay the target is T2, 5-HT2A receptor (Homo sapiens, UniProt P28223).
T2 construct: expressed in transfected cells; host or cells: CHO-K1 (or COS-7)
Nature of the assay: radioligand ([3H]-ketanserin) competitive binding assay for 5-HT2A receptor. To be noted: for IC50: human cortex or recombinant 5-HT2A receptor expressed in CHO-K1, read-out: binding affinity to 5-HT2A serotonin receptor expressed as IC50 value; for Ki: human cortex or recombinant 5-HT2A receptor expressed in CHO-K1, read-out: binding affinity to 5-HT2A serotonin receptor, Ki value. The protocol:
as §1, §2, §3
The radioligand used for the determination of binding to 5-HT2A receptor was [^3H]-ketanserin and the tissue used was human cortex or recombinant 5-HT2A receptor expressed in CHO-K1.

T2 sequence (P28223 whole entry): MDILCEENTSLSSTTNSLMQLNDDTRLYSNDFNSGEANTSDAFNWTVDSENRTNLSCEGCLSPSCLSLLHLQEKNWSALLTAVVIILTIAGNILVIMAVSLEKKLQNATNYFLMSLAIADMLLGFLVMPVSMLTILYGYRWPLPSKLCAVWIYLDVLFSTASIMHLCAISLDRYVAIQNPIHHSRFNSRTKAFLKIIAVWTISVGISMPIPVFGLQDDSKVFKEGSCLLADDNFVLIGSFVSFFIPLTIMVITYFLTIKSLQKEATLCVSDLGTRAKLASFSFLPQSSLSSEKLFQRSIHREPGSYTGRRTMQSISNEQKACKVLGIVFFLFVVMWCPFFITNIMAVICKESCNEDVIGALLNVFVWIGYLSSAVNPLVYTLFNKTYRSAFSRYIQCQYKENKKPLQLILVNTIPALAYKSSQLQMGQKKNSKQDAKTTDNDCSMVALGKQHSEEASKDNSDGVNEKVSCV

For orientation: IC50 means the point on the concentration scale where inhibition reaches its midpoint. As a reminder, the Ki is the dissociation constant of the complex between target and ligand, obtained from inhibition or displacement. In the case of `Cc1onc2c1-c1ccccc1Sc1ccccc1-2` [Compound 1, 3-Methyl-2-oxa-8-thia-1-aza-dibenzo[e,h]azulene], at 5-HT2C receptor, the 50% inhibitory concentration (IC50) is below 200 nM and the inhibition constant Ki is below 100 nM. Moreover, on 5-HT2A receptor, the half-maximal inhibitory concentration (IC50) was below 200 nM and the Ki is below 100 nM.
Consider `CN(C)CCCOCc1onc2c1-c1ccccc1Sc1ccccc1-2` [Compound 7, Dimethyl-[3-(2-oxa-8-thia-1-aza-dibenzo[e,h]azulen-3-ylmethoxy)-propyl]-amine], for which the IC50 on 5-HT2C receptor and on 5-HT2A receptor was below 200 nM in each case. Besides, the inhibition constant Ki on 5-HT2C receptor and at 5-HT2A receptor was below 100 nM in each case.
